Test results from paper PMC8092209, “Structural Basis of Ligand Selectivity by a Bacterial Adhesin Lectin Involved in Multispecies Biofilm Formation” (mBio, 2021).
“And” between values parts separate entries of the source, which are not always exact repeats. Identical values can stand only once.

Legend:
Type in all cases: binding
MpPA14 [1] = molecular target: T1, MpPA14 (Marinomonas primoryensis, UniProt A1YIY3); assay: Dextran-based comparative competition assay (MpPA14)
Source text: To gain insight into the binding specificity of MpPA14, we investigated the relative affinity of various monosaccharides for the lectin by a comparative competition assay ([12]). MpPA14 bound to Superdex resin was competitively released into solution by the progressive addition of free sugars. The released protein concentrations measured by absorbance at 280 nm were plotted as a function of free sugar concentration to produce semiquantitative binding curves (Fig. 1A and B). The apparent dissociation constant (Kdapp) calculated from these binding curves was used as a relative measure of affinity for each assayed sugar (Table 1). […] D-Ribose bound […] more strongly than its derivative 2-deoxy-D-ribose (Kdapp of 6.8 mM as opposed to 18 mM; Fig. 1B and Table 1).
The dextran resin competition assay was performed as previously described for MhPA14 ([12]). Briefly, Superdex 200 (S200) resin was washed twice with 50 mM Tris-HCl (pH 9), 150 mM NaCl, and 5 mM CaCl2. One ml of 1 mg/ml MpPA14 with green fluorescent protein (GFP) fused to its N terminus (GFP-MpPA14) or VcPA14 labeled with FITC was suspended with 300 μl of equilibrated Superdex 200 (S200) resin. Following an incubation period with gentle mixing, the S200 resin bound with GFP-MpPA14 was pelleted by centrifugation. The pellet was washed twice with 50 mM Tris-HCl (pH 9), 150 mM NaCl, and 5 mM CaCl2, and the A280 of the supernatant from the second wash was used as the baseline reading. Next, after resuspension in the same buffer, aliquots of 1.67 μmol saccharide were sequentially added to the solution six or seven times, with the A280 of the supernatant being measured after each addition to quantify the release of lectin. The final addition of saccharide was […]. Data from the dextran affinity assay were plotted using GraphPad Prism after subtracting the background. Next, the data were fitted to a nonlinear regression of one-site-specific binding, which follows the model y/Bmax = x/(Kd + x), with Bmax as the maximum specific binding and Kd as the equilibrium binding constant.

MpPA14 [2] = molecular target: T1, MpPA14; assay: Second glycan array (32 polysaccharides, Max Planck Institute for Marine Microbiology); conditions: for Binding of MpPA14 (RFUs): normalized signal intensity, maximal mean set to 100, cutoff of 5
Source text: To expand the repertoire of glycans beyond glucans and mannans, we performed a second focused microarray composed of 32 polysaccharides found in microbes such as fungi and bacteria, as well as in macroalgae and plants (Fig. 4B). […] In addition, MpPA14 interacted avidly with fucoidans from macroalgae. […] This conformer is not present in the arabinan polymer composed of 1,5-linked α-L-arabino-furanoses, which are then not free to transition to the pyranose form. Similarly, since the MpPA14 binds galactose via the 1,2-diol (β-anomer) (Fig. 3H), the lectin cannot interact with galactans, as they are polymers of β-1,4-D-galactose (Fig. 4B and Table S5).
The second glycan array was performed at the Max Planck Institute for Marine Microbiology (Bremen, Germany). The array contained duplicates of 32 polysaccharides, including those from macroalgae, bacteria, fungi, and land plants (see details in Table S5 in the supplemental material). N-terminally His-tagged MpPA14 was incubated with the array, and binding of the lectin to the polysaccharides was detected by an anti-His tag secondary antibody conjugated to alkaline phosphatase (Sigma-Aldrich). Microarray probing and quantification were performed as previously described ([45]). Maximal mean (average of the duplicates) signal intensity was set to 100, and the rest of values were normalized accordingly. A cutoff of 5 was applied ([58]).

MpPA14 [3] = molecular target: T1, MpPA14; assay: First glycan array (fungal, bacterial and plant polysaccharide array set 2, Imperial College); conditions: for binding to MpPA14 in first glycan array (in words): GFP-MpPA14; for Binding of MpPA14 (RFUs): GFP-MpPA14 50 μg/ml, Alexa Fluor 647 anti-GFP antibody, mean of duplicates

T1 sequence (A1YIY3 entry or part of it): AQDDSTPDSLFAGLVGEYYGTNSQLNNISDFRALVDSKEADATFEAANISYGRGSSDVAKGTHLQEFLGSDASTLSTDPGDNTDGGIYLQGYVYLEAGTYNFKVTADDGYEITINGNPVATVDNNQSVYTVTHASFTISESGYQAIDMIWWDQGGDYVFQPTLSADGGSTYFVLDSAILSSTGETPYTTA

Compound | Binding of MpPA14 (RFUs) (MpPA14 [2]) | Binding of MpPA14 (RFUs) (MpPA14 [3]) | other results
OC1OC[C@H](O)[C@H](O)[C@H]1O (mixture of isomers) [L-Arabinose] |  |  | Kd (MpPA14 [1]): 2.2 mM
O=CC[C@@H](O)[C@H](O)[C@H](O)CO [2-Deoxy-glucose, 2-deoxy-glucose] |  |  | Kd (MpPA14 [1]): 1.37 mM and 1.4 mM
O=CC[C@H](O)[C@H](O)CO [2-Deoxy-ribose, 2-deoxy-D-ribose] |  |  | Kd (MpPA14 [1]): 18 mM
Alginate | 22 RFUs |  | 
Arabinoxylan | 0 RFUs |  | 
Carboxymethyl cellulose (β-(1→4)-D-glucan) | 28 RFUs |  | 
Curdlan (β-(1→3)-D-glucan) |  | 167 RFUs | binding to MpPA14 in first glycan array (in words) (MpPA14 [3]): negligible or no detectable binding
Dextran (α-(1→6)-D-glucan backbone) |  | 41390 RFUs | binding to MpPA14 in first glycan array (in words) (MpPA14 [3]): bound most avidly
Fucoidan [Fucoidan (Ascophyllum nodosum)] | 77 RFUs |  | binding to MpPA14 in second glycan array (in words) (MpPA14 [2]): strongest MpPA14-binding fucoidans
Fucoidan [Fucoidan (Cladosiphon)] | 100 RFUs |  | binding to MpPA14 in second glycan array (in words) (MpPA14 [2]): strongest MpPA14-binding fucoidans
Fucoidan [Fucoidan (Fucus serratus)] | 53 RFUs |  | 
Fucoidan [Fucoidan (Fucus vesiculosus)] | 29 RFUs |  | 
Fucoidan [Fucoidan (Laminaria)] | 69 RFUs |  | 
Fucoidan [Fucoidan (Sargassum)] | 84 RFUs |  | binding to MpPA14 in second glycan array (in words) (MpPA14 [2]): strongest MpPA14-binding fucoidans
GN6-AO (chitin, β-1→4-GlcNAc) |  | 178 RFUs | binding to MpPA14 in first glycan array (in words) (MpPA14 [3]): negligible or no detectable binding
Galactofucan | 40 RFUs |  | 
Galactomannan (β-(1→4)-D-mannan backbone) | 0 RFUs |  | binding to MpPA14 in second glycan array (in words) (MpPA14 [2]): did not bind
Glucomannan (β-(1→4)-D-mannose and D-glucose backbone) | 0 RFUs |  | 
Glucurono-XyloMannan (α-(1→3)-Mannan with Xyl, GlcA and Fuc branches) | 0 RFUs | 75 RFUs | binding to MpPA14 in first glycan array (in words) (MpPA14 [3]): negligible or no detectable binding
Grifolan (β-(1→3)-D-glucan backbone, highly branched oligomers) |  | 39935 RFUs | binding to MpPA14 in first glycan array (in words) (MpPA14 [3]): bound most avidly
Laminarin (β-(1→3)-D-glucan backbone with 1→6 branches) [Laminarin (Eisenia bicyclis)] | 39 RFUs |  | 
Laminarin (β-(1→3)-D-glucan backbone with 1→6 branches) [Laminarin (Laminaria digitata)] | 41 RFUs |  | 
Lentinan (β-(1→3)-D-glucan backbone, β-(1→3)-D-glucan branches) |  | 41060 RFUs | binding to MpPA14 in first glycan array (in words) (MpPA14 [3]): bound most avidly
Lichenan (β-(1→3)(1→4)-D-glucan) [Lichenan (Icelandic moss)] | 44 RFUs |  | 

Compound | Binding of MpPA14 (RFUs) (MpPA14 [2]) | Binding of MpPA14 (RFUs) (MpPA14 [3]) | other results
Lichenan Mixed β-(1→3)/β-(1→4)-D-glucan [Lichenan (Lichen)] |  | 349 RFUs | 
Mannan (α-(1→6)-D-mannan backbone, α-(1→2)-,α-(1→3)-mannan branches) [Mannan (Saccharomyces cerevisiae)] | 0 RFUs | 3808 RFUs | binding to MpPA14 in second glycan array (in words) (MpPA14 [2]): no detectable interaction; binding to MpPA14 in first glycan array (in words) (MpPA14 [3]): weak binding
Mannan (β-(1→4)-D-mannan) [Mannan (Ivory nut)] | 15 RFUs |  | 
Mannoprotein (mannose rich) |  | 0 RFUs | binding to MpPA14 in first glycan array (in words) (MpPA14 [3]): negligible or no detectable binding
N -Mannoprotein (α-1→6-mannan backbone with oligomeric α-(1→2)-, α-(1→3)-, and β-(1→2)-mannan branches |  | 17438 RFUs | binding to MpPA14 in first glycan array (in words) (MpPA14 [3]): moderate lectin-glycan interactions
NSG (β-(1→3)-D-glucan backbone, β-(1→3)-D-glucan branches) |  | 2319 RFUs | 
PGPGG (β-(1→3)-D-glucan backbone, β-(1→3)-D-glucan branches) |  | 30143 RFUs | 
Pachyman (β-(1→3)-D-glucan backbone with 1→6 branches) | 75 RFUs |  | binding to MpPA14 in second glycan array (in words) (MpPA14 [2]): significant binding
Partially acetylated alginate | 0 RFUs |  | 
Polygalacturonic acid (α-(1→4)-D-galacturonic acid) | 0 RFUs |  | 
Porphyran | 0 RFUs |  | binding to MpPA14 in second glycan array (in words) (MpPA14 [2]): did not bind
Pullulan (α-(1→4)(1→6)-D-glucan) | 37 RFUs | 58106 RFUs | binding to MpPA14 in first glycan array (in words) (MpPA14 [3]): bound most avidly
Pustulan (β-(1→6)-D-glucan) [Pustulan (Lasallia pustulata)] | 86 RFUs |  | binding to MpPA14 in second glycan array (in words) (MpPA14 [2]): significant binding
Pustulan (β-(1→6)-D-glucan) [Pustulan (Umbilicaria papullosa)] |  | 1565 RFUs | 
Rhamnogalacturonan I | 0 RFUs |  | 
Scleroglucan (β-(1→3)-D-glucan backbone with 1→6 branches) | 65 RFUs |  | binding to MpPA14 in second glycan array (in words) (MpPA14 [2]): significant binding
Ulvan | 34 RFUs |  | 
Xyloglucan | 0 RFUs |  | binding to MpPA14 in second glycan array (in words) (MpPA14 [2]): did not bind
α-(1→5)-L-arabinan | 0 RFUs |  | binding to MpPA14 in second glycan array (in words) (MpPA14 [2]): did not bind
β-(1→4)-D-galactan | 0 RFUs |  | binding to MpPA14 in second glycan array (in words) (MpPA14 [2]): did not bind
β-(1→4)-D-xylan | 0 RFUs |  | binding to MpPA14 in second glycan array (in words) (MpPA14 [2]): did not bind
β-glucan Mixed β-(1→3)/β-(1→4)-D-glucan [β-glucan (Barley)] | 0 RFUs | 23 RFUs | binding to MpPA14 in first glycan array (in words) (MpPA14 [3]): negligible or no detectable binding
β-glucan Mixed β-(1→3)/β-(1→4)-D-glucan [β-glucan (Oat)] |  | 0 RFUs | binding to MpPA14 in first glycan array (in words) (MpPA14 [3]): negligible or no detectable binding
